Reference: publication PMC12348107, “Saponins from Oxybasis rubra (L.) S.Fuentes, Uotila & Borsh: Comparative Assessment of Cytotoxic Potential Against a Wide Panel of Cancer Cell Lines” (Molecules, 2025)
Values joined by “and” are separate entries in the source; they are usually repeats but may differ in a detail not shown here. Identical values can stand only once. Like-named read-outs stand apart in the source and are kept apart here. Marks after values point to notes of the source that are not given here.

Key:
[1] = system: HTB-140 malignant melanoma cells; test: LDH cytotoxicity assay, HTB-140; type: cell-based; details: Homo sapiens, LDH test, read-out: Cytotoxic activity expressed as IC50
Method: (§1) The cytotoxic activity was tested on human cancer and normal cell lines, grouped in several panels: skin (malignant melanoma HTB-140, malignant melanoma A375, melanoma WM793, and normal keratinocytes HaCaT), prostate (prostate carcinoma DU-145, prostate carcinoma PC3, and prostate epithelial cells PNT2), thyroid (thyroid carcinoma FTC133, thyroid carcinoma, undifferentiated 8505C), gastrointestinal panel (hepatocellular carcinoma HepG2, colon adenocarcinoma Caco-2, and colon adenocarcinoma HT29), and single line of lung carcinoma A549. Cells were grown at standard conditions (37 °C, 5% CO2, relative humidity) and culture media (DMEM/F12 for PNT2, WM793, HT29, A549; DMEM Low Glucose for DU-145; DMEM High Glucose for A375, HaCaT, A549; MEM with NEAA for Caco-2), supplemented with 10% fetal bovine serum (FBS) and 1% antibiotic solution (10,000 U penicillin and 10 mg streptomycin/mL). All cell lines, cell culture media, and supplements were from Merck (Seelze, Germany).
(§2) Before the experiment, cells were seeded onto 96-well plates for 24 h, at a density of 1.5 × 10^4 cells/ well. Then the tested compounds (5–100 μg/mL) were added and incubated for 24 and 48 h. Cell viability was measured with the lactate dehydrogenase (LDH) assay by Clontech (Clontech, Mountain View, CA, USA), as described previously. The absorbance was measured at 490 nm using a Biotek Synergy microplate reader (BioTek Instruments Inc., Winooski, VT, USA). Cell viability was expressed as a percentage of dead cells. Each experiment was conducted in triplicate. Doxorubicin was used as a reference cytostatic.
(§3) The results were expressed as mean (±SD). Data were analyzed using Statistica v.13.3 (StatSoft, Tulsa, OK, USA). The IC50 values were calculated using OriginPro 2020b (64-bit) 9.7.5.184 (Academic) (OriginLab Corporation, Northampton, MA, USA). One-way analysis of variance (ANOVA) and the post-hoc Tukey multiple comparison test were used. The statistical significance was defined at the probability level of p < 0.05. Principal component analysis (PCA) and hierarchical cluster analysis (HCA) were performed using Statistica v.13.3 (StatSoft, Tulsa, OK, USA). Prior to PCA, the Bartlett’s sphericity test was conducted, and the Kaiser-Meyer-Olkin Measure of Sampling Adequacy index (KMO) was examined. In the simple model, for each compound tested (1–4), the cell lines were the cases, and the different concentrations of the compound were the parameters. This was followed by a PCA model in which the cell lines were the parameters, and the compounds (at different concentrations) were the cases. All PCA models were based on a correlation matrix. Hierarchical cluster analysis (CA) based on standardized data was performed using Ward’s method and Euclidean distance. The results were grouped based on Mojena’s rule.

[2] = system: A375 malignant melanoma cells; test: LDH cytotoxicity assay, A375; type: cell-based; details: Homo sapiens, A-375, LDH test, read-out: Cytotoxic activity expressed as IC50
Method: as §1, §2, §3

[3] = system: WM793 primary melanoma cells; test: LDH cytotoxicity assay, WM793; type: cell-based; details: Homo sapiens, LDH test, read-out: Cytotoxic activity expressed as IC50
Method: as §1, §2, §3

[4] = LDH cytotoxicity assay, HaCaT; type: cell-based, human; details: human, HaCaT normal keratinocytes, HaCaT normal cells, LDH test, read-out: Cytotoxic activity expressed as IC50
Method: as §1, §2, §3

[5] = system: HaCaT normal keratinocytes; test: LDH cytotoxicity assay, HaCaT; type: cell-based, human; details: HaCaT normal cells, 48 h incubation, LDH test
Method: as §1, §2, §3

[6] = system: DU-145 metastatic prostate carcinoma cells; test: LDH cytotoxicity assay, DU-145; type: cell-based, human; details: for IC50: Homo sapiens, LDH test, read-out: Cytotoxic activity expressed as IC50
Method: as §1, §2, §3

[7] = system: PC3 metastatic prostate carcinoma cells; test: LDH cytotoxicity assay, PC3; type: cell-based; details: Homo sapiens, LDH test, read-out: Cytotoxic activity expressed as IC50
Method: as §1, §2, §3

[8] = LDH cytotoxicity assay, PNT2; type: cell-based, human; details: human, PNT2 prostate epithelial cells (normal), PNT2 normal cells, LDH test, read-out: Cytotoxic activity expressed as IC50
Method: as §1, §2, §3

[9] = system: PNT2 prostate epithelial cells; test: LDH cytotoxicity assay, PNT2; type: cell-based, human; details: normal prostate epithelial cells
Method: as §1, §2, §3

[10] = system: FTC133 follicular thyroid carcinoma cells; test: LDH cytotoxicity assay, FTC133; type: cell-based; details: Homo sapiens, FTC-133, LDH test, read-out: Cytotoxic activity expressed as IC50
Method: as §1, §2, §3

[11] = system: 8505C undifferentiated thyroid carcinoma cells; test: LDH cytotoxicity assay, 8505C; type: cell-based; details: Homo sapiens, LDH test, read-out: Cytotoxic activity expressed as IC50
Method: as §1, §2, §3

[12] = system: Caco-2 colon adenocarcinoma cells; test: LDH cytotoxicity assay, Caco-2; type: cell-based; details: Homo sapiens, LDH test, read-out: Cytotoxic activity expressed as IC50
Method: as §1, §2, §3

[13] = system: HT29 colon adenocarcinoma cells; test: LDH cytotoxicity assay, HT29; type: cell-based; details: Homo sapiens, HT-29, LDH test, read-out: Cytotoxic activity expressed as IC50
Method: as §1, §2, §3

[14] = system: HepG2 hepatocellular carcinoma cells; test: LDH cytotoxicity assay, HepG2; type: cell-based; details: Homo sapiens, LDH test, read-out: Cytotoxic activity expressed as IC50
Method: as §1, §2, §3

[15] = system: A549 lung carcinoma cells; test: LDH cytotoxicity assay, A549; type: cell-based, human; details: LDH test; for IC50: Homo sapiens, read-out: Cytotoxic activity expressed as IC50
Method: as §1, §2, §3

In the case of CC1(C)CC[C@]2(C(=O)O[C@@H]3O[C@H](CO)[C@@H](O)[C@H](O)[C@H]3O)CC[C@]3(C)C(=CC[C@@H]4[C@@]5(C)CC[C@H](O[C@@H]6O[C@H](CO)[C@@H](O)[C@H](O[C@@H]7O[C@H](CO)[C@@H](O)[C@H](O)[C@H]7O)[C@H]6O)[C@@](C)(CO)[C@@H]5CC[C@]43C)[C@@H]2C1 [Compound 2], the IC50 ([1]; HTB-140, 24 h incubation) is reported as over 100 µg/mL, the IC50 ([1]; HTB-140, 48 h incubation) is reported as over 100 µg/mL and the IC50 ([2]; A375, 24 h incubation) is reported as 33.9 µM and 32.5 µg/mL. The IC50 ([2]; A375, 48 h incubation) was 31.4 µM and 30.1 µg/mL, the IC50 ([3]; WM793, 24 h incubation) was 14.4 µM and 13.8 µg/mL and the IC50 ([3]; WM793, 48 h incubation) was 6.79 µM and 6.52 µg/mL. For the same compound, the IC50 at 24 h ([4]; 24 h incubation) was 46.8 µM and 44.9 µg/mL, the IC50 at 48 h ([4]; 48 h incubation) was 41.6 µM and 39.9 µg/mL and the “Cytotoxic activity expressed as IC50” value [5] was 39.93 ± 0.52 ^b µg/mL. For the same compound, the “Toxicity against DU-145, in words” value ([6]; DU-145) was “moderate toxicity”, the IC50 ([6]; DU-145, 24 h incubation) was 33.3 µM and 32 µg/mL and the IC50 ([6]; DU-145, 48 h incubation) was 22 µM and 21.1 µg/mL. For the same compound, the IC50 ([7]; PC3, 24 h incubation) was over 100 µg/mL, the IC50 ([7]; PC3, 48 h incubation) was 69.8 µM and 67 µg/mL and the IC50 at 24 h ([8]; 24 h incubation) was over 100 µg/mL. For the same compound, the IC50 at 48 h ([8]; 48 h incubation) was over 100 µg/mL, the IC50 ([9]; Homo sapiens, PNT2, incubation time not given, read-out: IC50 against normal prostate epithelial cells) was over 100 µg/mL and the “Toxicity to normal prostate epithelial cells, in words” value [9] was “non-toxic”. For the same compound, the IC50 ([10]; FTC133, 24 h incubation) was 42.9 µM and 41.1 µg/mL, the IC50 ([10]; FTC133, 48 h incubation) was 23.5 µM and 22.5 µg/mL and the IC50 ([11]; 24 h incubation) was over 100 µg/mL. The IC50 ([11]; 48 h incubation) was over 100 µg/mL, the IC50 ([12]; Caco-2, 24 h incubation) was over 100 µg/mL and the IC50 ([12]; Caco-2, 48 h incubation) was 38.4 µM and 36.8 µg/mL. For the same compound, the IC50 ([13]; HT29, 24 h incubation) was over 100 µg/mL, the IC50 ([13]; HT29, 48 h incubation) was 66.5 µM and 63.8 µg/mL and the IC50 ([14]; HepG2, 24 h incubation) was 98 µM and 94 µg/mL. The IC50 ([14]; HepG2, 48 h incubation) was 63 µM and 60.5 µg/mL, the “Cytotoxic activity expressed as IC50” value ([15]; A549, 48 h incubation) was 8.23 ± 0.29 ^a µg/mL and the IC50 ([15]; A549, 24 h, A549, 24 h incubation) was 13.8 µM and 13.2 µg/mL. For the same compound, the IC50 ([15]; A549, 48 h, A549, 48 h incubation) was 8.58 µM and 8.24 µg/mL.
